From article PMC12190436, “5-Ene-2-arylaminothiazol-4(5H)-ones Induce Apoptosis in Breast Cancer Cells” (Cells, 2025)

Assays:
HL-60(TB) = format: cell-based
NCI-H522 = format: cell-based
NCI-H266 = format: cell-based
EKVX = format: cell-based
HCT-15 = format: cell-based
TK-10 = format: cell-based
SF-268 = format: cell-based
OVCAR-8 = format: cell-based
UACC-257 = format: cell-based
SF-295 = format: cell-based; conditions: for Growth %: SF-295, 10 μM, one dose, 48 h
HT29 = format: cell-based
Bax = test: Bax, anti-Bax FITC antibody flow cytometry; format: cell-based, human; conditions: 5 µM, 24 h, MCF-7
Description: To evaluate the effects of the tested compounds on the concentration of Bax protein, anti-Bax FITC-conjugated antibody was applied. MCF-7 cells were seeded on 6-well plates at 5 × 10^6 cells per well, followed by incubation for 24 h. Afterwards, the cells were treated for 24 h with new 4-thiazolidinone derivatives (Les-6416, Les-6418, Les-6381, Les-6423, and Les-6424) at a concentration of 5 µM. Then, cells were collected and incubated with 4% formaldehyde for 15 min at RT. Next, cells were washed with an excess amount of PBS, followed by permeabilization by adding ice-cold 90% methanol and incubation for 60 min in an ice bath. Cells were again washed with an excess of PBS and resuspended in 100 µL of diluted primary antibody, prepared in antibody dilution buffer at a 1:100 dilution, and incubated for 60 min at room temperature in the dark. Cells were washed, resuspended in 0.3 mL, and transferred to the tubes for immediate assessment using a BD FACSCanto II flow cytometer (Becton Dickinson Biosciences, San Jose, CA, USA). For each sample, 1 × 10^4 events were analyzed. The results were analyzed using FACSDiva software Version 6.1.3 (BD Biosciences Systems, San Jose, CA, USA).
Another important protein for the intrinsic pathway of apoptosis is a pro-apoptotic member of the Bcl-2 family-Bax. […]

MCF7 = format: cell-based
caspase 9 = test: FLICA caspase-9 activity, flow cytometry; format: cell-based, human; conditions: 5 µM, 24 h, MCF-7
Description: To determine the effects of the novel compounds on the caspases-3/7, caspase-8, caspase-9, and caspase-10 activity, the FLICA Caspase-3/7 Assay Kit, FLICA Caspase-8 Assay Kit, FLICA Caspase-9 Assay Kit, and FLICA Caspase-10 Assay Kit were applied (ImmunoChemistry Technologies, Bloomington, MN, USA). MCF-7 cells were seeded on 6-well plates (1 × 10^5 cells per well) and incubated for 24 h. Afterwards, they were treated for 24 h with tested compounds (Les-6416, Les-6418, Les-6381, Les-6423, and Les-6424) in a concentration of 5 µM and the reference drug doxorubicin hydrochloride in a concentration of 0.5 µM. Next, cells were amassed and washed two times with cold PBS, followed by resuspension in an Apoptosis Wash Buffer to a final concentration of 5 × 10^5 cells/mL. Afterwards, 290 µL of the prepared cell suspensions were transferred into tubes, followed by the addition of 10 µL of FLICA solution, prepared immediately before use, to each sample and incubated for an hour at 37 °C. Next, cells were washed two times with 2 mL of Apoptosis Wash Buffer, provided in the kit, centrifuged, and resuspended in 300 µL of the buffer. Prepared samples were assessed by a BD FACSCanto II flow cytometer (Becton Dickinson Biosciences, San Jose, CA, USA). For each sample, 1 × 10^4 events were analyzed. […]

`COc1cc(NC2=NC(=O)C(=Cc3c[nH]c4ccccc34)S2)cc(OC)c1OC` [Les-6418, 5-((1H-Indol-3-yl)methylene)-2-((3,4,5-trimethoxyphenyl)amino)thiazol-4(5H)-one] was tested, and the TGI (HL-60(TB); HL-60(TB), 48 h) was 11.1 µM, the “SI (TGI)” value (HL-60(TB); HL-60(TB), MG_MID_60/value) was 1.68 and the GI50 (HL-60(TB); Homo sapiens, HL-60(TB), 48 h) was 0.855 µM. It also gave a CC50 (HL-60(TB); Homo sapiens, HL-60(TB), 48 h, read-out: LC50 (the source's name)) of over 100 µM, a GI50 (NCI-H522; Homo sapiens, NCI-H522, 48 h) of 0.403 µM and a CC50 (NCI-H522; Homo sapiens, NCI-H522, 48 h, read-out: LC50 (the source's name)) of 46 µM. The TGI (NCI-H522; NCI-H522, 48 h) was 5.56 µM, the “SI (TGI)” value (NCI-H522; NCI-H522, MG_MID_60/value) was 3.34 and the GI50 (NCI-H266; Homo sapiens, NCI-H266, 48 h) was 3.18 µM. The CC50 (NCI-H266; Homo sapiens, NCI-H266, 48 h, read-out: LC50 (the source's name)) was 68.8 µM, the TGI (NCI-H266; NCI-H266, 48 h) was 17.4 µM and the “SI (TGI)” value (NCI-H266; NCI-H266, MG_MID_60/value) was 1.07. The TGI (EKVX; 48 h) was 22.2 µM, the GI50 (EKVX; Homo sapiens, 48 h) was 8.02 µM and the LC50 (EKVX; Homo sapiens, 48 h) was 53.2 µM. The “SI (TGI)” value (EKVX; MG_MID_60/value) was 0.84, the TGI (HCT-15; HCT-15, 48 h) was 12.4 µM and the “SI (TGI)” value (HCT-15; HCT-15, MG_MID_60/value) was 1.50. It also gave a GI50 (HCT-15; Homo sapiens, HCT-15, 48 h) of 1.79 µM, a CC50 (HCT-15; Homo sapiens, HCT-15, 48 h, read-out: LC50 (the source's name)) of 37.7 µM and a GI50 (TK-10; Homo sapiens, TK-10, 48 h) of 8.56 µM. The CC50 (TK-10; Homo sapiens, TK-10, 48 h, read-out: LC50 (the source's name)) was 55.6 µM, the TGI (TK-10; TK-10, 48 h) was 22.8 µM and the “SI (TGI)” value (TK-10; TK-10, MG_MID_60/value) was 0.82. The GI50 (SF-268; Homo sapiens, SF-268, 48 h) was 3.56 µM, the CC50 (SF-268; Homo sapiens, SF-268, 48 h, read-out: LC50 (the source's name)) was 81.3 µM and the TGI (SF-268; SF-268, 48 h) was 20.0 µM. The “SI (TGI)” value (SF-268; SF-268, MG_MID_60/value) was 0.93, the GI50 (OVCAR-8; Homo sapiens, OVCAR-8, 48 h) was 10.6 µM and the LC50 (50% lethal concentration) (OVCAR-8; Homo sapiens, OVCAR-8, 48 h) was 70.1 µM. For the same compound, the TGI (OVCAR-8; OVCAR-8, 48 h) was 27.2 µM, the “SI (TGI)” value (OVCAR-8; OVCAR-8, MG_MID_60/value) was 0.68 and the GI50 (UACC-257; Homo sapiens, UACC-257, 48 h) was 5.18 µM. For the same compound, the CC50 (UACC-257; Homo sapiens, UACC-257, 48 h, read-out: LC50 (the source's name)) was 52.7 µM, the TGI (UACC-257; UACC-257, 48 h) was 21.1 µM and the “SI (TGI)” value (UACC-257; UACC-257, MG_MID_60/value) was 0.88. For the same compound, the GI50 (SF-295; Homo sapiens, SF-295, 48 h) was 2.27 µM, the CC50 (SF-295; Homo sapiens, SF-295, 48 h, read-out: LC50 (the source's name)) was 40.9 µM and the Growth % (SF-295) was −73.38%. The TGI (SF-295; SF-295, 48 h) was 13.4 µM, the “SI (TGI)” value (SF-295; SF-295, MG_MID_60/value) was 1.39 and the TGI (HT29; HT29, 48 h) was 10.1 µM. The “SI (TGI)” value (HT29; HT29, MG_MID_60/value) was 1.84, the GI50 (HT29; Homo sapiens, HT-29, HT29, 48 h) was 0.923 µM and the CC50 (HT29; Homo sapiens, HT-29, HT29, 48 h, read-out: LC50 (the source's name)) was 47.6 µM. For the same compound, the “Bax positive cells, cell population” value (Bax) was 8.27 ± 0.58%, the GI50 (MCF7; Homo sapiens, MCF7, 48 h) was 1.79 µM and the CC50 (MCF7; Homo sapiens, MCF7, 48 h, read-out: LC50 (the source's name)) was 44.7 µM. For the same compound, the TGI (MCF7; MCF7, 48 h) was 11.9 µM and the “SI (TGI)” value (MCF7; MCF7, MG_MID_60/value) was 1.56.

For `COc1cc(NC2=NC(=O)C(=Cc3cccs3)S2)cc(OC)c1OC` [Les-6423, 5-(Thiophen-2-ylmethylene)-2-((3,4,5-trimethoxyphenyl)amino)thiazol-4(5H)-one], the “cells with active caspase 9” value (caspase 9) was “did not show any effect”.

`COc1cc(NC2=NC(=O)C(=Cc3ccc4cc[nH]c4c3)S2)cc(OC)c1OC` [Les-6416, 5-((1H-Indol-6-yl)methylene)-2-((3,4,5-trimethoxyphenyl)amino)thiazol-4(5H)-one] was tested, and the Growth % (HL-60(TB); HL60(TB), 10 μM, one dose, 48 h) was 15.10%, the Growth % (NCI-H522; NCI-H522, 10 μM, one dose, 48 h) was 3.77% and the “cells with active caspase 9” value (caspase 9) was 41.90 ± 6.89%. For the same compound, the Growth % (SF-295) was 5.01%, the Growth % (HT29; HT29, 10 μM, one dose, 48 h) was 7.66% and the “Bax positive cells, cell population” value (Bax) was 12.27 ± 0.45%. It also gave a Growth % (MCF7; MCF-7, 10 μM, one dose, 48 h) of 6.76%.
